Experimental data: US20110293558A1, “MATERIAL PROPERTIES OF T CELLS AND RELATED METHODS AND COMPOSITIONS” (Massachusetts Institute of Technology, priority 2010, published 2011)
Entries after “also recorded” stand apart in the source; their conditions may differ.

Assays:
[1] = system: RBCs re-suspended in saline / Ringer solution; settings: cited from earlier work
parasitemia = settings: patients treated with artemisinin and its derivatives vs other antimalarial drugs; cited from earlier work
[2] = system: P. falciparum-infected RBCs (iRBCs); assay: Microfluidic deformability cytometer: cell mobility after artesunate treatment; assay type: cell-based, human; settings: for iRBC deformability (cell mobility) after artesunate drug treatment: 0.01, 0.05 or 0.1 μg/ml artesunate, 2, 4 and 6 hours after treatment, synchronized rings ~15% parasitemia; for separation resolution between iRBCs and uRBCs: after artesunate drug treatment vs untreated
From the text: (§1) The device used in this example comprises a series of equally spaced triangular pillar arrays with pore sizes ranging from 2.5 to 4 um (FIG. 55A illustrates the case of 3 um pore size). Compared to the diameter of an average RBC (˜7.5 um), the smaller pore sizes are designed to impose similar mechanical constraints on the cells as if they are passing through blood capillaries and splenic meshwork. Driven by constant pressure gradient in the sub-Pascal-per-micrometer range, RBCs are able to deform substantially at each constriction and traverse along the channel. The dynamic deformability of RBCs is then characterized by their mobility: the ability to deform repeatedly in order to pass through multiple constrictions in series.
(§2) FIG. 55A depicts an experimental schematic of the microfluidic system. A heating chamber (Olympus) was mounted to the inverted microscope stage. Four heaters for the inner water bath, microscope stage, chamber top, and lens were designed to accurately control the ambient temperature inside the chamber. The PDMS-glass bonded device consists of the inlet and outlet reservoirs and main channels with triangular pillar arrays. It was placed inside the heating chamber with only the inlet reservoir connecting to an external syringe via a 20 cm-tubing. The reservoirs were 500×500 μm^2 squares with 20 μm-interspacing cylindrical pillar arrays; these pillar arrays could pre-filter white blood cells from whole blood, allowing only RBCs to pass through the main channels. Each of the parallel channels was 10 pillars wide and 200 pillars long. Along the flow direction, the inter-pillar spacing was 10 μm. This spacing allows deformed cells to recover and ready for subsequent deformations. Perpendicular to the flow direction, the pore size varied from 2.5 to 4 μm for different channels. Cells experience different levels of deformation when passing through these pores.
(§3) FIG. 55B presents microscopic screenshots illustrating both iRBCs and co-cultured uRBCs moving in the microchannel at different temperature conditions. The uninfected cells appear as dark shadows indicated by blue arrows, and the infected cells with thiazole orange (TO) staining appear as bright dots indicated by white arrows. The mobility of individual cells can then be derived by recording the time period for each cell passing through 10 constrictions in series (i.e. equivalent to 200 μm distance travelled). In this example, cell mobility is used to characterize the dynamic deformability of individual RBCs.
(§4) The deformability of both iRBCs and uRBCs were measured at 2, 4 and 6 hours after artesunate drug treatment (FIG. 60). A synchronized culture of rings with ˜15% parasitemia was resuspended at 0.1% hematocrit in malaria culture medium containing 0.01, 0.05 or 0.1 μg/ml of artesunate.
(§5) Layout program CleWin3.0 was used to design the microfluidic device, which consists of a 500×500 μm^2 inlet reservoir, a 500×500 μm^2 outlet reservoir, and parallel capillary channels with triangular pillar arrays (FIG. 55A). Three different pore-size of 2.5, 3.0 and 4.0 μm were designed for the capillary channels to test optimum deformation condition for the experiment. A silicon mold of the device was made using standard silicon processing techniques. The photolithography step was done using a 5× reduction step-and-repeat projection stepper (Nikon NSR2005i9, Nikon Prevision) and reactive-ion etching (RIE) techniques were used to give the mold a final depth of 4.2 μm. Final device was then casted from the silicon mold using polydimethylsiloxane (PDMS) and was sealed by a glass slide using oxygen plasma.
(§6) P. falciparum 3D7A parasites (from Malaria Research and Reference Reagent Source, American Type Culture Collection) were cultured in leukocyte-free human RBCs (Research Blood Components, Brighton Mass.) in RPMI 1640 complete medium as described (Trager and Jensen J. parasitol. 2005). […]

[3] = system: co-cultured uninfected RBCs (uRBCs); assay: as above; assay type: cell-based, human; settings: 0.01, 0.05 or 0.1 μg/ml artesunate; 2, 4 and 6 hours after treatment
From the text: as §1, §2, §3, §4, §5, §6

RBCs = assay: Deformability cytometer: RBC velocity/passage after glutaraldehyde treatment; assay type: cell-based, human
From the text: The device design includes periodically spaced, triangle-shaped pillars and the gaps between these pillars result in well-controlled constrictions for RBCs to pass. The height of the device was set to 4.2 μm. RBCs were forced to assume a flat orientation before entering each constriction. This height, in addition to filters at the reservoirs, prevented white blood cells from entering the device, and permitted diluted whole blood to be used directly.
A mold of the device was made on a silicon wafer using photolithography and reactive-ion etching techniques. A 5× reduction step-and-repeat projection stepper (Nikon NSR2005i9, Nikon Precision) was used for patterning. The spacing between pillars was 3 μm, and the depth of the device was 4.2 μm. The device was made using standard PDMS casting protocols and bonded to a glass slide.
PBS was mixed with 0.2% w/v Pluronic F-108 (BASF, Mount Olive, N.J.) and 1% w/v Bovine Serum Albumin (BSA) (Sigma-Aldrich, St. Louis, Mo.) as a stock solution to prevent RBC adhesion to the device walls. For the fluorescent bead experiments, 200 nm FluoSpheres europium luminescent microspheres (Molecular Probes, Eugene, Oreg.) diluted to a final concentration of 1.25×10^−5 percent solids were used.
In experiments involving blood, 1 μl of whole blood (˜50% hematocrit) was diluted in 100 μl of the PBS-pluronic-BSA solution for all of the experiments. […]

Compound: CC=O [acetaldehyde]
- RBC hardening / suspension viscosity ([1]; prolonged exposure of clean RBCs to acetaldehyde, re-suspension in Ringer solution): constant suspension viscosity over the full range of hematocrit and shear rates

Compound: C[C@@H]1CC[C@H]2[C@@H](C)C(=O)O[C@@H]3O[C@@]4(C)CC[C@@H]1[C@]32OO4 [artemisinin]
- decline in parasitemia (parasitemia): more rapid decline in parasitemia

Compound: C[C@H]1[C@H](OC(=O)CCC(=O)O)O[C@@H]2O[C@@]3(C)CC[C@H]4[C@H](C)CC[C@@H]1[C@@]24OO3 [artesunate]
- iRBC deformability (cell mobility) after artesunate drug treatment [2]: stiffening effect; also recorded: drop in iRBC deformability is more precipitous than in uRBC
- iRBC deformability (cell mobility) after artesunate drug treatment ([2]; listed as Artesunate): significant decrease in cell mobility
- mobility decrease ([2]; 2 and 4 hours after artesunate treatment, iRBCs and uRBCs both measured): smaller and less pronounced mobility decrease
- dose dependence of mobility changes ([2]; after 4 hour drug treatment, dosage range 0.01 to 0.1 μg/ml): no statistically significant dose dependence
- separation resolution between iRBCs and uRBCs [2]: almost doubled
- separation resolution between iRBCs and uRBCs ([2]; listed as Artesunate): doubled
- uRBC deformability (cell mobility) after artesunate drug treatment [3]: stiffening effect; also recorded: stiffened considerably

Compound: O=CCCCC=O [glutaraldehyde]
- RBC stiffness / velocity with increasing glutaraldehyde concentration (RBCs; 30 minutes in PBS, approx. 0.61 Pa/μm, FIG. 5B): progressively stiffer with decreasing velocity
- RBC passage into the channel (RBCs; glutaraldehyde concentrations greater than 0.003%): most RBCs were held up at the entrance to the channel

Compound: Fibrinogen
- suspension viscosity ([1]; fibrinogen added progressively to washed RBCs in pure saline): increase in viscosity with increasing fibrinogen concentration at low deformation rates
